Results published in a melting point compilation (Tetko et al.; mined from patent text by program, amines drawn as free bases though some values may be those of a salt).

Row | SMILES | melting point
1 | COC(=O)CSC(CCCc1ccccc1)c1ccc(OCc2ccc3ccc(F)cc3n2)cc1 (stereo not given) | 64 to 66 °C
2 | Cc1cc(C)c(C(C(N)=O)C(N)=O)c(C)c1 | 177 to 179 °C
3 | Cn1c(Cl)cc(=O)n(C2CCCCC2)c1=O | 132 to 133 °C
4 | CC12CCC(=O)C=C1C(=O)CC1C2CCC2(C)C(c3cccnc3)=CCC12 (stereo not given) | 210 to 212 °C
5 | CNC(=NS(C)(=O)=O)NCCSCc1nccc(NC(N)=NCC(F)(F)F)n1 | 148 to 149 °C
6 | CC1=C(C(=O)O)CCC(C)(C)C1 | 108 to 110 °C
7 | CCOC(=O)CCc1cccc2c1Sc1cc(C#N)ccc1CC2 | 61 to 62 °C
8 | CS(=O)(=O)N1CCC(Nc2ncc(C(=O)c3ccccc3)c(N)n2)CC1 | 249 to 250 °C
9 | CC(C)NC(=O)N1CCC(F)(Cc2c3c(nn2C)c(N)nc2ccccc23)CC1 | 241 to 244 °C
10 | COC(=O)Cc1ccccc1NC(=S)NN(C)C | 130 to 131 °C
11 | CC1CN(c2ccc(Cl)cc2)N=C1NC(=O)C(F)(F)F (stereo not given) | 181 to 183 °C
12 | CC(C)(O)Cn1c(CO)nc2c(N)nc3cc(CCS(C)(=O)=O)ccc3c21 | 221 to 223 °C
13 | C[C@]1(CN2CCC(OCCCc3ccc(Cl)cc3)CC2)Cn2cc([N+](=O)[O-])nc2O1 | 88.8 to 91.9 °C
14 | O=C(O)c1c(-c2ccccc2)c(=O)[nH]c2cc(Cl)ccc12 | 258 °C
15 | CC(C)c1nn(-c2nc3ccccc3s2)c(-c2ccc(F)cc2)c1C=CC1CC(O)CC(=O)O1 (stereo not given) | 168 to 170 °C
16 | COC(=O)C1Cc2cc(OC)ccc2N1S(=O)(=O)c1ccc(I)cc1 (stereo not given) | 154 °C
17 | O=S(=O)(Nc1ccc2c(OCc3coc(-c4ccc(Cl)cc4)n3)cccc2c1)C(F)(F)F | 198 to 200 °C
18 | CCCCCCCCCCCCCCCCC[C@@H](O)C[C@H]1OC(=O)[C@@H]1CCC | 84 to 85 °C
19 | Cn1c2cc(C(O)CO)ccc2c2c3c(c(-c4ccccc4Cl)cc21)C(=O)NC3=O (stereo not given) | 252 to 255 °C
20 | CN(C)S(=O)(=O)c1ccc(Cl)c(-c2csc(=Nc3ccccc3)n2C)c1 | 195 to 197 °C
21 | Cc1oc(-c2cccs2)nc1COc1ccc(CON=C(CCCCCCC(=O)O)c2ccccc2)cc1 | 106 to 108 °C
22 | Cc1nn(CC(F)(F)COC(=O)N(C)C)c(-c2ccc(F)cc2)c1-c1ccc2c(c1)NC(=O)CO2 | 146 °C

Row | SMILES | melting point
23 | O=C(Nc1ccc2nc(CN3CCCC3)ccc2c1)c1ccc(N2CCCCC2=O)cc1 | 210 to 212 °C
24 | CCCN(CCC)C1CNc2c(cc(Br)cc2[N+](=O)[O-])C1 (stereo not given) | 88 to 91 °C
25 | OCCCCCCCCCCCCN1CCC(CNC[C@H](O)COc2cccc3[nH]c4ccccc4c23)CC1 | 110 °C
26 | CCOC(=O)C(=Cc1cccn2cc(-c3cccc(OC)c3)nc12)N=[N+]=[N-] | 109 to 111 °C
27 | CC1CCCC(C)N1C(=O)CSC#N (stereo not given) | 81 to 82 °C
28 | CNC(=O)c1cccc(NC(=O)Cc2cccc3sccc23)c1 | 192 °C
29 | COc1ccc(CN(C)C(=O)CCCOc2ccc3c(c2)CN2CC(=O)NC2=N3)cc1 | 256 to 258 °C
30 | CCCCOCCOc1ccc(-c2ccc3c(c2)C=C(C(=O)Nc2ccc(O)cc2)CCN3CC(C)C)cc1 | 155 to 157 °C
31 | CCCCCC(O)C=Cc1scnc1CCCCCCC(=O)O (stereo not given) | 73 to 74 °C
32 | COc1ccc(S(=O)(=O)N2CCc3cccc(-c4ccco4)c32)cc1 | 177 to 178 °C
33 | Fc1cc(F)c2c(c1)CC(n1cc[nH]c1=S)C2 (stereo not given) | 185 to 186 °C
34 | Cc1cc(C(=O)N2CCCCC2)ccc1[N+](=O)[O-] | 71.7 to 72.2 °C
35 | CC(=S)NCC1CN(c2ccc(N(C)C=O)c(F)c2)C(=O)O1 (stereo not given) | 105 to 107 °C
36 | Cc1ccc(-c2coc3c(O)c(O)ccc3c2=O)cc1 | 225 °C
37 | N=C(Nc1cc(NC(=O)/C=C/c2ccccc2Cl)cc(C(F)(F)F)c1)c1cccs1 | 206 to 208 °C
38 | CC(C)SN1N=C(c2cccc([N+](=O)[O-])c2)C(SC(C)C)(SC(C)C)C1=O | 73 to 74 °C
39 | NC(=O)c1ncn2c(=O)n(Cc3ccccc3)nnc12 | 187 to 188 °C
40 | CC(=NNC(=O)C1CCCCC1)c1ccncc1 | 195 °C
41 | Cc1cc([N+](=O)[O-])c(C)nc1O | 263 °C
42 | CCCCSc1cc(C(=O)O)cc(N=Nc2cc(C(=O)O)cc(SCCCC)c2C(=O)c2ccccc2)c1C(=O)c1ccccc1 | 102 to 103 °C
43 | COCCOCc1c(CN(C)CC(O)c2cccc(N)c2)sc2c(=O)c(C(=O)NCc3ccc(Cl)cc3)cn(C)c12 (stereo not given) | 128 to 131 °C
44 | O=C(NCc1ccccc1)c1ccnc(NC(=O)c2cccc3ccccc23)c1 | 65 to 67 °C

Row | SMILES | melting point
45 | O=c1[nH]nc(-c2ccc(NN=C(c3ccc(O)cc3O)c3ccc(O)cc3O)cc2)c2ccccc12 | 140 to 146 °C
46 | CCCCCCNC(=N)NC#N | 103 to 105 °C
47 | CCOc1ccc2c(c1)C(=O)N(c1ccc3c(ccn3C)c1)C2 | 185 to 190 °C
48 | Fc1ccccc1C(c1ccccc1)n1cccc1 (stereo not given) | 81 to 82.5 °C
49 | CN(N)c1nc(-c2ccccc2)c2cc(Cl)ccc2n1 | 156 °C
50 | O=C(CCc1ccccc1)N[C@H](Cc1ccc(C(F)(F)F)o1)[C@@H](O)c1ccc(F)cc1 (racemic) | 91 to 92 °C
51 | COc1cc(OC)c(-c2cc3ccccc3s2)cc1/C=C/C(=O)c1ccc(Nc2c(N)c(=O)c2=O)cc1 | > 260 °C
52 | CN(C)C(=O)Sc1ccc(C(F)(F)F)cc1C(=O)c1ccc(C#N)cc1 | 159 °C
53 | O=C1c2ccc(OS(=O)(=O)C(F)(F)F)cc2CCC1Cc1ccccc1 (stereo not given) | 52 to 53.7 °C
54 | Nc1nsnc1NCCCOc1cccc(CN2CC=CCC2)c1 | 99.5 to 104 °C
55 | CCc1c(-c2ccc(OCc3ccccc3)cc2)c2cc(C(C)=O)c3ccc(CO)c1n32 | 190 to 191 °C
56 | O=c1[nH]c2cc(Cl)c(Cl)c([N+](=O)[O-])c2[nH]c1=O | 347 to 348 °C
57 | CP(C)(=O)CN1CCN(c2n[nH]c3ccccc23)CC1 | 223 to 225 °C
58 | Cc1ccc(-c2coc3cc(O)c(O)cc3c2=O)cc1 | 280 °C
59 | CC(C)C1OP(N(CCCCCCN(C2CC(C)(C)NC(C)(C)C2)P2OCC(C)(C)C(C(C)C)O2)C2CC(C)(C)NC(C)(C)C2)OCC1(C)C (stereo not given) | 95 to 97 °C
60 | CCn1nc(C)c2c1C(=O)NCC(c1cccc(O)c1)=N2 | 204 °C
61 | COC(=O)/C=C/C=C(/c1ccc(OC)cc1)c1cccs1 | 97 to 99 °C
62 | CC(=O)NCCC1CCc2c(Cl)cc3nn(C)cc3c21 (stereo not given) | 143 to 144 °C
63 | COc1cc(C(C)C)c2c(c1)S(=O)(=O)N(CCl)C2=O | 151 to 152 °C
64 | O=C(c1cccs1)C1CCN(Cc2ccccc2)CC1 | 83.9 °C

More lines, now with the values ahead:

Row | melting point | SMILES
65 | 135 to 137 °C | COc1ccc(-c2nnc(OC)nc2-c2ccc(OC)cc2)cc1
66 | 99 to 101 °C | Cc1nc2nc(S(=O)(=O)Cl)nn2cc1Cl
67 | 215 °C | O=C(c1cccc(Cl)c1)c1sc2cc(O)ccc2c1-c1ccccc1
68 | 224 °C | N#Cc1cc(NC(=O)c2ccn(-c3ccc(Cl)cc3)c2)ccc1N1CCN(C2CCOCC2)CC1
69 | > 310 °C | OCC1C=CC(n2cnc3c(O)ncnc32)O1 (stereo not given)
70 | 131 to 132 °C | COc1cc([N+](=O)[O-])c(C=O)cc1OCc1ccccc1
71 | 83 to 84.5 °C | O=C(Oc1ccccc1)C(I)=C(I)I
72 | 95 to 97 °C | CCOC(=O)C1=C(C)NC(=S)N(C(=O)OCC)C1c1cccc(Cl)c1 (stereo not given)
73 | 151 to 152 °C | ON=Cc1ccc(N2CCC3(CC2)OCCO3)cc1
74 | 119 to 121 °C | COc1ccccc1N1CCN(C[C@@H](CC2CCCCC2)NC(=O)C2(C)CCCCC2)CC1
75 | 106 to 107 °C | Cc1cc(CCCCc2cc(C)c(O)c(C(C)(C)C)c2)cc(C(C)(C)C)c1O
76 | 140 to 141 °C | COc1ccc(C2COc3c(ccc(O)c3C)C2)cc1 (stereo not given)
77 | 217 to 219 °C | Cc1c(/C=C/C(=O)O)cnn1C
78 | 141 to 142 °C | CC(C)(C)c1ccc(CCC(O)CC2CCCCC2)cc1NC(=O)CC1c2ccccc2Oc2ccccc21 (stereo not given)
79 | 166 °C | Cc1cc2n(c1C(=O)c1cccs1)CCC2C(=O)O (stereo not given)
80 | 107 to 110 °C | CN(C)CC1CNc2cc(Cl)ccc2C1 (stereo not given)
81 | 70 to 72 °C | Cc1ccc(S(=O)(=O)NCCO)c(C)c1
82 | 153 to 154 °C | CCc1nn2c(N3CCN(C)CC3)cc(OCCO)nc2c1S(=O)(=O)c1ccccc1

Row | melting point | SMILES
83 | 86 to 88 °C | CC(C)c1nn(-c2ccccc2)c(-c2ccc(F)cc2)c1CCC=O
84 | 110 to 112 °C | CCCCCCCCCCCC(=O)Oc1ccc(-c2nc(-c3ccc(N(C)C)cc3)c(C)[nH]2)cc1OC
85 | 188 to 190 °C | Nc1ccc(S(=O)(=O)Nc2cc(N)cc(N)c2)cc1
86 | 73 °C | CN1CCC(O)(C2CC(c3ccc(-c4ccc(N5C[C@H](Cn6ccnn6)OC5=O)cc4F)cn3)=NO2)CC1 (stereo not given in full)
87 | 210 to 212 °C | O=C1N(Cc2ncccn2)c2ccccc2C12COc1cc3c(cc12)OCCO3 (stereo not given)
88 | 100 °C | CCC1Sc2cc(Br)ccc2NC1=O (stereo not given)
89 | 252 to 253 °C | Cc1nn(-c2ccccn2)c2[nH]c3ccccc3c(=S)c12
90 | 192 °C | CC(=O)OC1CSC(Oc2cccc3c2nc(C)n3C)C(OC(C)=O)C1OC(C)=O (stereo not given)
91 | 136 to 137 °C | CC1CCCCN1c1nc(N)nc(-c2cc(Cl)ccc2Cl)n1 (stereo not given)
92 | 138 to 139 °C | CC(C)(C)c1ccc(CC(=O)O)c(Cc2ccc(CC(=O)O)cc2)c1
93 | 222 to 224 °C | CN1C(C(=O)Nc2ccccn2)=C(O)c2sc3ccccc3c2S1(=O)=O
94 | 129 to 134 °C | CNC(=O)C(=NOC)c1cc(C)c(C)cc1C(ON)=C(C)c1cccc(C(F)(F)F)c1
95 | 121 to 122 °C | O=C(c1cccs1)C(Cc1ccccc1F)n1cncn1 (stereo not given)
96 | 172 to 173 °C | CCOC(=O)C1=C(C)NC(C)=C(C(=O)OCC)C1c1ccccc1/C=C/C#N
97 | 322 to 324 °C | Cc1nc2c(N)nc3cnccc3c2n1CC(C)C
98 | 131 to 135 °C | CCCCCCCCCCCCCCOc1ccc2cc(C(=O)O)oc2c1
99 | 189 to 191 °C | CC(C)N1CCNC(=O)c2ccc(Nc3ncc(Cl)c(N[C@@H]4CCCC[C@H]4NS(C)(=O)=O)n3)cc21
100 | 134 to 135 °C | CC(=O)C1(OC(=O)CCl)CCC2C3CCC4=CC(=O)CCC4(C)C3CCC21C (stereo not given)
